US5472954A, “Cyclodextrin complexation” (priority 1993, dated 1995)
Converted amounts (≈) assume the structure as drawn.

Columns and labels:
[1] = ΔH, ΔS and stability constant (Kc) of drug-HPβCD MS 0.6 complexes, effect of PVP (Example 17); assay type: physicochemical; details: HPβCD MS 0.6 complex
Procedure: The effect of polyvinylpyrrolidone (PVP) on the enthalpy (ΔH) and the entropy (ΔS) of the stability constant (Kc) of the drug-cyclodextrin complex was determined.
An excess amount of the drug was added to water containing 0, 0.1, 0.25 or 0.5% (w/v) PVP and various amounts of HPβCD or HPαCD.

physchem [2] = experiment: physchem
[3] = Effect of polymers on the solubilization of various compounds in aqueous HPβCD solutions (Example 14)
Procedure: An excess amount of the compound to be tested was added to each solvent and the suspensions which formed were heated in sealed containers to 120° C. The solubility of salicylic acid was determined in acidic (HCl) solution.

physchem [4] = experiment: physchem; remark: listed apart in the source
[5] = Effect of previously prepared solid HPβCD-polymer complexing agent on solubility (Example 13); assay type: physicochemical
Procedure: The resultant solutions were heated in sealed containers to 120° C. and maintained at that temperature for 30 minutes, then were lyophilized. The solids thus obtained were ground with a mortar and pestle.
The solid cyclodextrin/polymer products were reconstituted with water to afford solutions containing 9.88% (w/v) HPβCD and 0.12% (w/v) PVP, 0.12% (w/v) or CMC 0.12% (w/v) HPMC. The solubilities (S) of three drugs in these solutions and in an aqueous solution containing 10% (w/v) HPβCD without added polymer were then determined as follows:
An excess amount of each drug was added to each of the four cyclodextrin solutions and the solutions were sonicated in an ultrasonic bath for 3 hours, then allowed to equilibrate for 60 hours at room temperature (23° C.). […] However, by separate preparation of the cyclodextrin/polymer complexing agent as illustrated here, one can readily avoid heating drugs which are unstable at elevated temperature.

[6] = Effect of PVP on the solubilization of drugs in aqueous HPβCD solutions (Example 7); details: for S4 /S3: with vs without 0.25% PVP
[7] = Solubility of various drugs: effect of CMC in aqueous HPβCD solutions (Example 1); details: for S4 /S3: 0.25% CMC + 10% HPβCD vs 10% HPβCD
[8] = HPβCD with CMC / HPβCD without polymer (S6)
[9] = HPβCD with HPMC / HPβCD without polymer (S8)
[10] = HPβCD with PVP / HPβCD without polymer (S7)

C[C@]12CC[C@@H]3c4ccc(O)cc4CC[C@H]3[C@@H]1CC[C@@H]2O [17β-Estradiol, 17β-estradiol]
ΔH ([1]; PVP 0.00% w/v): -17 kcal/mol
ΔS ([1]; PVP 0.00% w/v): -151 J mol^-1 K^-1
ΔH ([1]; PVP 0.10% w/v): -18 kcal/mol
ΔS ([1]; PVP 0.10% w/v): -166 J mol^-1 K^-1
ΔH ([1]; PVP 0.25% w/v): -21.4 kcal/mol
ΔS ([1]; PVP 0.25% w/v): -213 J mol^-1 K^-1
ΔH ([1]; PVP 0.50% w/v): -19.4 kcal/mol
ΔS ([1]; PVP 0.50% w/v): -185 J mol^-1 K^-1

Cc1nnc2n1-c1ccc(Cl)cc1C(c1ccccc1)=NC2 [Alprazolam]
solubility (physchem [2]; 0.25% cmc + 10% hpbetacd): 1550 µg/mL
solubility (physchem [2]; aqueous 0.25% cmc): 180 µg/mL (≈ 0.583 mM)
solubility (physchem [2]; aqueous 10% hpbetacd): 1280 µg/mL (≈ 4.15 mM)
solubility (physchem [2]; water): 70 µg/mL (≈ 0.227 mM)

COc1ccc(O)c(C(C)(C)C)c1 [Butylated hydroxyanisole]
S2 solubility ([3]; 0.25% (w/v) CMC): 400 µg/mL
S4 solubility ([3]; 0.25% (w/v) HPMC): 280 µg/mL
S3 solubility ([3]; 0.25% (w/v) PVP): 1240 µg/mL
S6 solubility ([3]; 0.25% CMC and 10% HPβCD MS=0.6 (salicylic acid: acidic HCl solution)): 14300 µg/mL
S8 solubility ([3]; 0.25% HPMC and 10% HPβCD MS=0.6 (salicylic acid: acidic HCl solution)): 15500 µg/mL
S7 solubility ([3]; 0.25% PVP and 10% HPβCD MS=0.6 (salicylic acid: acidic HCl solution)): 15800 µg/mL
S5 solubility ([3]; 10% (w/v) HPβCD MS=0.6 (salicylic acid: acidic HCl solution)): 13900 µg/mL
solubility ratio [3, 8]: 1.03
solubility ratio [3, 9]: 1.12
solubility ratio [3, 10]: 1.14
S1 solubility ([3]; water): 400 µg/mL

CC12CCC(CC1=O)C2(C)C (stereo not drawn) [Camphor]
solubility ([3]; 0.25% hpmc + 10% hpβcd): 13300 µg/mL
solubility ([3]; 0.25% pvp + 10% hpβcd): 13700 µg/mL
solubility ([3]; aqueous 0.25% cmc): 2010 µg/mL (≈ 13.2 mM)
solubility ([3]; aqueous 0.25% cmc, 10% hpβcd): 13800 µg/mL (≈ 90.6 mM)
solubility ([3]; aqueous 0.25% hpmc): 1920 µg/mL (≈ 12.6 mM)
solubility ([3]; aqueous 0.25% pvp): 2200 µg/mL (≈ 14.5 mM)
solubility ([3]; aqueous 10% hpβcd): 12700 µg/mL (≈ 83.4 mM)
solubility ([3]; water): 1840 µg/mL (≈ 12.1 mM)

CC(C)(O)C(Cl)(Cl)Cl [Chlorbutol]
solubility ([3]; 0.25% hpmc + 10% hpβcd): 29900 µg/mL
solubility ([3]; aqueous 0.25% cmc): 8410 µg/mL (≈ 47.4 mM)
solubility ([3]; aqueous 0.25% cmc, 10% hpβcd): 29300 µg/mL (≈ 165 mM)
solubility ([3]; aqueous 0.25% hpmc): 8150 µg/mL (≈ 45.9 mM)
solubility ([3]; aqueous 0.25% pvp): 8410 µg/mL (≈ 47.4 mM)
solubility ([3]; aqueous 10% hpβcd): 28600 µg/mL (≈ 161 mM)
solubility ([3]; water): 8110 µg/mL (≈ 45.7 mM)

C=C1CC[C@H](O)C/C1=C/C=C1\CCC[C@]2(C)[C@@H]([C@H](C)CCCC(C)C)CC[C@@H]12 [Cholecalciferol]
solubility ([3]; 0.25% hpmc + 10% hpβcd): 690 µg/mL
solubility ([3]; 0.25% pvp + 10% hpβcd): 760 µg/mL
solubility ratio [3, 8]: 1.18
solubility ratio [3, 9]: 1.14
solubility ratio [3, 10]: 1.25
solubility ([3]; aqueous 0.25% cmc, 10% hpβcd): 720 µg/mL (≈ 1.87 mM)
solubility ([3]; aqueous 10% hpβcd): 610 µg/mL (≈ 1.59 mM)

Clc1ccccc1C(c1ccccc1)(c1ccccc1)n1ccnc1 [Clotrimazole, clotrimazole]
solubility (physchem [2]; 0.25% cmc + 10% hpbetacd): 1400 µg/mL
solubility (physchem [2]; aqueous 10% hpbetacd): 1200 µg/mL (≈ 3.48 mM)
solubility at 72 h (physchem [4]; 0.25% pvp, 10% hpβcd): 1800 µg/mL (≈ 5.22 mM)
solubility at 72 h (physchem [4]; 10% hpβcd ms 0.7): 1200 µg/mL (≈ 3.48 mM)

Clc1ccc(COC(Cn2ccnc2)c2ccc(Cl)cc2Cl)cc1 (stereo not drawn) [Econazole, econazole]
solubility (physchem [2]; 0.25% cmc + 10% hpbetacd): 7410 µg/mL
solubility (physchem [2]; aqueous 0.25% cmc): 600 µg/mL (≈ 1.57 mM)
solubility (physchem [2]; aqueous 10% hpbetacd): 4860 µg/mL (≈ 12.7 mM)
solubility (physchem [2]; water): 570 µg/mL (≈ 1.49 mM)
solubility ([5]; 9.88% hpbetacd + 0.12% cmc, 9.88% (w/v) HPβCD and 0.12% (w/v) CMC, read-out: S3 solubility): 5200 µg/mL
solubility ([5]; 9.88% hpbetacd + 0.12% hpmc, 9.88% (w/v) HPβCD and 0.12% (w/v) HPMC, read-out: S4 solubility): 6320 µg/mL
solubility ([5]; 9.88% hpbetacd + 0.12% pvp, 9.88% (w/v) HPβCD and 0.12% (w/v) PVP, read-out: S2 solubility): 5570 µg/mL
solubility ([5]; 10% hpbetacd, 10% (w/v) HPβCD, read-out: S1 solubility): 4860 µg/mL (≈ 12.7 mM)
solubility at 72 h (physchem [4]; 0.25% pvp, 10% hpβcd): 5650 µg/mL (≈ 14.8 mM)
solubility at 72 h (physchem [4]; 10% hpβcd ms 0.7): 5220 µg/mL (≈ 13.7 mM)
solubility at 72 h (physchem [4]; aqueous 0.25% pvp): 640 µg/mL (≈ 1.68 mM)
solubility at 72 h (physchem [4]; water): 570 µg/mL (≈ 1.49 mM)

CCOc1ccc2nc(S(N)(=O)=O)sc2c1 [Ethoxyzolamide]
S4 /S3 [6]: 2.00
solubility (physchem [2]; 0.25% cmc + 10% hpbetacd): 1660 µg/mL
solubility (physchem [2]; aqueous 0.25% cmc): 70 µg/mL (≈ 0.271 mM)
solubility (physchem [2]; aqueous 10% hpbetacd): 1190 µg/mL (≈ 4.61 mM)
solubility (physchem [2]; water): 40 µg/mL (≈ 0.155 mM)
S4 /S3 [7]: 1.39
solubility at 72 h (physchem [4]; 0.25% pvp, 10% hpβcd): 2720 µg/mL (≈ 10.5 mM)
solubility at 72 h (physchem [4]; 10% hpβcd ms 0.7): 1360 µg/mL (≈ 5.26 mM)
solubility at 72 h (physchem [4]; aqueous 0.25% pvp): 60 µg/mL (≈ 0.232 mM)
solubility at 72 h (physchem [4]; water): 40 µg/mL (≈ 0.155 mM)

CN(C)c1ccc(N=Nc2ccccc2)cc1 [Methylyellow]
solubility ([3]; 0.25% hpmc + 10% hpβcd): 250 µg/mL
solubility ([3]; 0.25% pvp + 10% hpβcd): 240 µg/mL
solubility ratio [3, 8]: 1.04
solubility ratio [3, 9]: 1.09
solubility ratio [3, 10]: 1.04
solubility ([3]; aqueous 0.25% cmc): 0.85 µg/mL (≈ 0.00377 mM)
solubility ([3]; aqueous 0.25% cmc, 10% hpβcd): 240 µg/mL (≈ 1.07 mM)
solubility ([3]; aqueous 0.25% hpmc): 0.75 µg/mL (≈ 0.00333 mM)
solubility ([3]; aqueous 0.25% pvp): 0.85 µg/mL (≈ 0.00377 mM)
solubility ([3]; aqueous 10% hpβcd): 230 µg/mL (≈ 1.02 mM)
solubility ([3]; water): 0.64 µg/mL (≈ 0.00284 mM)

C[C@]12C=CC(=O)C=C1CC[C@@H]1[C@@H]2[C@@H](O)C[C@@]2(C)[C@H]1CC[C@]2(O)C(=O)CO [Prednisolone, prednisolone]
solubility (physchem [2]; 0.25% cmc + 10% hpbetacd): 15300 µg/mL
solubility (physchem [2]; aqueous 0.25% cmc): 530 µg/mL (≈ 1.47 mM)
solubility (physchem [2]; aqueous 10% hpbetacd): 13600 µg/mL (≈ 37.7 mM)
solubility (physchem [2]; water): 380 µg/mL (≈ 1.05 mM)
S4 /S3 [7]: 1.13

CC(=O)[C@H]1CC[C@H]2[C@@H]3CCC4=CC(=O)CC[C@]4(C)[C@H]3CC[C@]12C [Progesterone, progesterone]
solubility at 72 h ([6]; 0.25% pvp, 10% hpβcd): 5710 µg/mL (≈ 18.2 mM)
solubility at 72 h ([6]; 10% hpβcd ms 0.7): 4760 µg/mL (≈ 15.1 mM)
S4 /S3 [6]: 1.20
S4 /S3 [7]: 1.52
solubility ([7]; 0.25% cmc + 10% hpbetacd): 6110 µg/mL
solubility ([7]; aqueous 10% hpbetacd): 4030 µg/mL (≈ 12.8 mM)

O=C(O)c1ccccc1O [Salicylic acid]
solubility ([3]; 10% hpβcd acidic hcl solution): 3710 µg/mL (≈ 26.9 mM)
solubility ratio [3, 8]: 1.14
solubility ratio [3, 9]: 1.06
solubility ratio [3, 10]: 1.10
solubility ([3]; acidic hcl, cmc, hpβcd): 4230 µg/mL (≈ 30.6 mM)
solubility ([3]; hpmc/hpβcd acidic hcl solution): 3920 µg/mL (≈ 28.4 mM)
solubility ([3]; pvp/hpβcd acidic hcl solution): 4070 µg/mL (≈ 29.5 mM)

CC1(C)O[C@@H]2C[C@H]3[C@@H]4CCC5=CC(=O)C=C[C@]5(C)[C@@]4(F)[C@@H](O)C[C@]3(C)[C@]2(C(=O)CO)O1 [Triamcinolone acetonide, triamcinolone acetonide]
solubility (physchem [2]; 0.25% cmc + 10% hpbetacd): 2580 µg/mL
solubility (physchem [2]; aqueous 0.25% cmc): 70 µg/mL (≈ 0.161 mM)
solubility (physchem [2]; aqueous 10% hpbetacd): 2090 µg/mL (≈ 4.81 mM)
solubility (physchem [2]; water): 30 µg/mL (≈ 0.069 mM)

COc1cc(Cc2cnc(N)nc2N)cc(OC)c1OC [Trimethoprim]
solubility at 72 h (physchem [4]; 0.25% pvp, 10% hpβcd): 6470 µg/mL (≈ 22.3 mM)
solubility at 72 h (physchem [4]; 10% hpβcd ms 0.7): 2830 µg/mL (≈ 9.75 mM)
solubility at 72 h (physchem [4]; aqueous 0.25% pvp): 1350 µg/mL (≈ 4.65 mM)
solubility at 72 h (physchem [4]; water): 820 µg/mL (≈ 2.82 mM)

COc1cc(C=O)ccc1O [Vanillin]
solubility ([3]; 0.25% hpmc + 10% hpβcd): 26500 µg/mL
solubility ratio [3, 8]: 1.09
solubility ratio [3, 9]: 1.06
solubility ([3]; aqueous 0.25% cmc): 13700 µg/mL (≈ 90 mM)
solubility ([3]; aqueous 0.25% cmc, 10% hpβcd): 27300 µg/mL (≈ 179 mM)
solubility ([3]; aqueous 0.25% hpmc): 17100 µg/mL (≈ 112 mM)
solubility ([3]; aqueous 0.25% pvp): 11500 µg/mL (≈ 75.6 mM)
solubility ([3]; aqueous 10% hpβcd): 25000 µg/mL (≈ 164 mM)
solubility ([3]; water): 13900 µg/mL (≈ 91.4 mM)
